According to patent US11066369B2, “N-(pyridin-2-yl)pyridine-sulfonamide derivatives and their use in the treatment of disease” (Novartis AG, priority 2016, dated 2021):
Like-named read-outs stand apart in the source and are kept apart here.

Experiments:
[1] = target: T1, delF508-CFTR (Homo sapiens, UniProt P13569, DEL508-508); experiment: Measurement of delF508-CFTR functional activity in primary human bronchial epithelial cells (HBECs) using Multi-Transepithelial Clamp Circuit (MTECC-24) assay; assay type: cell-based; details: primary CF HBECs; for MTECC24 CFHBEC- Amax %: test compound added 24h before assay plus potentiator, relative to reference combination (2 μM corrector + 0.5 μM potentiator); for EC50: test compound added 24h before assay, in the presence of potentiator, mean of at least two replicates, read-out: MTECC24 CFHBEC- EC50
T1 construct: functional activity of the CFTR channel (Chloride ion transport) in patient derived primary human bronchial epithelial cells; host or cells: patient-derived primary human bronchial epithelial cells (delF508-CFTR)
In short: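 Patient-derived primary delF508-CFTR HBECs, differentiated at air-liquid interface ~2 weeks, treated basolaterally with compound for 24 h, then apical and basolateral compound in HEPES pH 7.4 assay medium. Equivalent short-circuit current (Ieq) recorded on MTECC-24 with sequential amiloride, forskolin, potentiator and INH-172; normalized to 0.1% DMSO, EC50 from curve fit.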

[2] = target: T2, horseradish peroxidase (HRP) tagged delF508-CFTR (Homo sapiens, UniProt P13569, DEL508-508); experiment: Measurement of delF508-CFTR-HRP surface expression in CFBE41o- cells; assay type: cell-based; details: for Emax: read-out: DelF508-CFTR-HRP Amax %;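 as to DelF508-CFTR-HRP Amax %: percent efficacy relative to reference corrector lumacaftor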
T2 construct: expressed in transfected cells
In short: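 CFBE41o- bronchial epithelial cells stably expressing delF508-CFTR with HRP in the fourth extracellular loop; expression induced 48h with 500 ng/mL doxycycline, then compounds added (top 10 μM, 10-point 3-fold series, ≤0.5% DMSO) for 24h at 37° C. Surface HRP measured by luminescence with cell-impermeant substrate; EC50 from logistic fit of triplicates, plate-normalized to lowest concentration; efficacy also relative to a reference corrector.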

[3] = delF508-CFTR-HRP surface expression, CFBE41o- cells
[4] = delF508-CFTR-HRP surface expression, CFBE41o- cells, read-out: DelF508-CFTR-HRP EC50

T2 sequence (P13569 with tags, fused parts or gaps DEL508-508): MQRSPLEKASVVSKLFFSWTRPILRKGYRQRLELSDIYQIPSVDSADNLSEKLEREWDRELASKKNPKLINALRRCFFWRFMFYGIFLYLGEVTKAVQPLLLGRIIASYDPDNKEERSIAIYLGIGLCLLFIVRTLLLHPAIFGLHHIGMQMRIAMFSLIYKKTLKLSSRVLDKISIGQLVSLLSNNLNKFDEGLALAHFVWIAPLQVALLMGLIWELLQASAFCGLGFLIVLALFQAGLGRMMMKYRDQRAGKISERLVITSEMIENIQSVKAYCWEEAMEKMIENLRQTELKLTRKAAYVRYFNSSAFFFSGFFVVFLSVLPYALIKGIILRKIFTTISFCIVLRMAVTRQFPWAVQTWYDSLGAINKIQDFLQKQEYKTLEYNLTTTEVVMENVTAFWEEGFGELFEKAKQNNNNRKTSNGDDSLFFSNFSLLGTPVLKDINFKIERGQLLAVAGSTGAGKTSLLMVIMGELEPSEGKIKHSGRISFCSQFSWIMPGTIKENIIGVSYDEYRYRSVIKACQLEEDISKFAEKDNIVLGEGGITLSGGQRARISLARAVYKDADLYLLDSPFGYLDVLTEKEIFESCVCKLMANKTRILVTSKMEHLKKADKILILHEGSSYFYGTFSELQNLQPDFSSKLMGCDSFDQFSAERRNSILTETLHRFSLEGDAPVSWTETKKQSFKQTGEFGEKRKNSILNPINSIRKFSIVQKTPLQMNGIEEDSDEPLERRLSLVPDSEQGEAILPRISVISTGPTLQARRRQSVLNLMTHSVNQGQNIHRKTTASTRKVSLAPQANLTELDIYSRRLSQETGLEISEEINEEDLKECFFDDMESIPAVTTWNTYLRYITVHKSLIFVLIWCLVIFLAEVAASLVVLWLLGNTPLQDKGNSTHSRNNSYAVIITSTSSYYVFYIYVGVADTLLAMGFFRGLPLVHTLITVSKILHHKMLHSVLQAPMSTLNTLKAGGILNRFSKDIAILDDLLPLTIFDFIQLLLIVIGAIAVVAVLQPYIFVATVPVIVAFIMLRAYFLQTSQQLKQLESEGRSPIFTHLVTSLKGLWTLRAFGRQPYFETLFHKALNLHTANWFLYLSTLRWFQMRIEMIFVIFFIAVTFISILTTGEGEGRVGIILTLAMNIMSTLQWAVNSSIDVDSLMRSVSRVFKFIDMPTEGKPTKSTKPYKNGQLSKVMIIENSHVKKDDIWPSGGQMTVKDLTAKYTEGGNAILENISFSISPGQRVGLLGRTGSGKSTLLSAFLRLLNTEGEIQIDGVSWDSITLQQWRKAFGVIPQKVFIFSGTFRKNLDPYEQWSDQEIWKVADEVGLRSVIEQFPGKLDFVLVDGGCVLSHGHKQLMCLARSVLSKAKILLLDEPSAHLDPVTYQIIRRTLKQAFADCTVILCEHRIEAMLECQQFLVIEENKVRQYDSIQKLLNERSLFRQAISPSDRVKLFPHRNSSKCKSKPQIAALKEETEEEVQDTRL
T1 sequence (P13569 with tags, fused parts or gaps DEL508-508): as above

SMILES	MTECC24 CFHBEC- Amax % [1]	EC50 [1]	Emax [2, 3]	EC50 [2, 4]	EC50 [2]	Emax ([2]; CFBE41o-)	DelF508-CFTR-HRP Amax % [2, 3]
Cc1ccc(F)cc1-c1nc(NS(=O)(=O)c2cccc(N3CCC(O)C3C(=O)O)n2)ccc1C(F)(F)F (centres unmarked) [Example 315, 1-(6-(N-(6-(5-fluoro-2-methylphenyl)-5-(trifluoromethyl)pyridin-2-yl)sulfamoyl)pyridin-2-yl)-3-hydroxypyrrolidine-2-carboxylic Acid]	60.9%	52 nM	269%	3290 nM			
Cc1ccc(F)cc1-c1nc(NS(=O)(=O)c2ccnc(N3CCOC[C@H]3C)c2)ccc1Cl [Example 318, (R)—N-(5-chloro-6-(5-fluoro-2-methylphenyl)pyridin-2-yl)-2-(3-methylmorpholino)pyridine-4-sulfonamide]	48.7%	77.6 nM	318%	3170 nM			
Cc1c(F)cccc1-c1nc(NS(=O)(=O)c2ccnc(N3CCOC[C@H]3C)c2)ccc1Cl [Example 319, (R)—N-(5-chloro-6-(3-fluoro-2-methylphenyl)pyridin-2-yl)-2-(3-methylmorpholino)pyridine-4-sulfonamide]	67.1%	25 nM	195%	3480 nM			
Cc1ccc(F)cc1-c1nc(NS(=O)(=O)c2ccnc(N3CC(C)(O)C3)c2)ccc1C(F)(F)F [Example 320, N-(6-(5-fluoro-2-methylphenyl)-5-(trifluoromethyl)pyridin-2-yl)-2-(3-hydroxy-3-methylazetidin-1-yl)pyridine-4-sulfonamide]	74.2%	126 nM	545%	2220 nM			
Cc1ccc(F)cc1-c1nc(NS(=O)(=O)c2ccnc(N3CCOC[C@H]3C)c2)ccc1C(F)(F)F [Example 321, (R)—N-(6-(5-fluoro-2-methylphenyl)-5-(trifluoromethyl)pyridin-2-yl)-2-(3-methylmorpholino)pyridine-4-sulfonamide]	49.1%	18.3 nM	413%	1720 nM			
Cc1ccc(F)cc1-c1nc(NS(=O)(=O)c2ccnc(N3CC(O)C3)c2)ccc1Cl [Example 322, N-(5-chloro-6-(5-fluoro-2-methylphenyl)pyridin-2-yl)-2-(3-hydroxyazetidin-1-yl)pyridine-4-sulfonamide]	52.6%	222 nM	310%	2610 nM			
Cc1c(F)cccc1-c1nc(NS(=O)(=O)c2ccnc(N3CC(O)C3)c2)ccc1Cl [Example 323, N-(5-chloro-6-(3-fluoro-2-methylphenyl)pyridin-2-yl)-2-(3-hydroxyazetidin-1-yl)pyridine-4-sulfonamide]	67.7%	147 nM	252%	2770 nM			
Cc1ccc(F)cc1-c1nc(NS(=O)(=O)c2ccnc(N3CC(O)C3)c2)ccc1C(F)(F)F [Example 324, N-(6-(5-fluoro-2-methylphenyl)-5-(trifluoromethyl)pyridin-2-yl)-2-(3-hydroxyazetidin-1-yl)pyridine-4-sulfonamide]	49.4%	47.9 nM	402%	2640 nM			
O=S(=O)(Nc1ccc(C(F)(F)F)c(-c2ccccc2C(F)(F)F)n1)c1ccnc(N2CC(O)C2)c1 [Example 325, 2-(3-hydroxyazetidin-1-yl)-N-(5-(trifluoromethyl)-6-(2-(trifluoromethyl)phenyl)pyridin-2-yl)pyridine-4-sulfonamide]	60.1%	15.4 nM	257%	2400 nM			
Cc1ccc(F)cc1-c1nc(NS(=O)(=O)c2ccnc(N3CCNCC3)c2)ccc1C(F)(F)F [Example 326, N-(6-(5-fluoro-2-methylphenyl)-5-(trifluoromethyl)pyridin-2-yl)-2-(piperazin-1-yl)pyridine-4-sulfonamide]	50.5%	203 nM	103%	3810 nM			
Cc1ccccc1-c1nc(NS(=O)(=O)c2cccc(N3CCC[C@@H](C(=O)O)C3)n2)ccc1C(F)(F)F [Example 332, (3R)-1-(6-{[6-(2-methylphenyl)-5-(trifluoromethyl)pyridin-2-yl]sulfamoyl}pyridin-2-yl)piperidine-3-carboxylic Acid]	84.0%	4.75 nM	521%	1110 nM			
Cc1ccccc1-c1nc(NS(=O)(=O)c2cccc(N3CCC[C@H](C(=O)O)C3)n2)ccc1C(F)(F)F [Example 333, (3S)-1-(6-{[6-(2-methylphenyl)-5-(trifluoromethyl)pyridin-2-yl]sulfamoyl}pyridin-2-yl)piperidine-3-carboxylic Acid]	47.6%	7.9 nM	428%	1950 nM			
Cc1ccccc1-c1nc(NS(=O)(=O)c2cccc(N3CCCC(C)(C(=O)O)C3)n2)ccc1C(F)(F)F (centres unmarked) [Example 337, 3-methyl-1-(6-{[6-(2-methylphenyl)-5-(trifluoromethyl)pyridin-2-yl]sulfamoyl}pyridin-2-yl)piperidine-3-carboxylic Acid]	51.5%	2.72 nM		2250 nM			
Cc1ccccc1-c1nc(NS(=O)(=O)c2cccc(OC3CCC(C(=O)O)CC3)n2)ccc1C(F)(F)F (centres unmarked) [Example 342, 4-((6-(N-(6-(o-tolyl)-5-(trifluoromethyl)pyridin-2-yl)sulfamoyl)pyridin-2-yl)oxy)cyclohexanecarboxylic Acid]	85.8%	80.2 nM	266%	1900 nM			
CC1(C(=O)O)CCN(c2cccc(S(=O)(=O)Nc3ccc(C(F)(F)F)c(-c4ccccc4N4CCOCC4)n3)n2)CC1 [Example 343, 4-methyl-1-(6-(N-(6-(2-morpholinophenyl)-5-(trifluoromethyl)pyridin-2-yl)sulfamoyl)pyridin-2-yl)piperidine-4-carboxylic Acid]	65.3%	86.1 nM	197%	2150 nM			
Cc1ccccc1-c1nc(NS(=O)(=O)c2cccc(N3CCC(C(=O)O)CC3)n2)ccc1C(F)(F)F [Example 344, 1-(6-{[6-(2-methylphenyl)-5-(trifluoromethyl)pyridin-2-yl]sulfamoyl}pyridin-2-yl)piperidine-4-carboxylic Acid]	46.7%	22.8 nM	132%	2810 nM			
Cc1ccccc1-c1nc(NS(=O)(=O)c2cccc(N3C4CCCC3CC(C(=O)O)C4)n2)ccc1C(F)(F)F (centres unmarked) [Example 345, 9-(6-{[6-(2-methylphenyl)-5-(trifluoromethyl)pyridin-2-yl]sulfamoyl}pyridin-2-yl)-9-azabicyclo[3.3.1]nonane-3-carboxylic Acid]	90.4%	41.5 nM			1330 nM	557%	
CCCC1(C(=O)O)CCN(c2cccc(S(=O)(=O)Nc3ccc(C(F)(F)F)c(-c4ccccc4CC)n3)n2)CC1 [Example 351, 1-(6-{[6-(2-ethylphenyl)-5-(trifluoromethyl)pyridin-2-yl]sulfamoyl}pyridin-2-yl)-4-propylpiperidine-4-carboxylic Acid]	99.7%	107 nM	492%	870 nM			
CCCC1(C(=O)O)CCCN(c2cccc(S(=O)(=O)Nc3ccc(C(F)(F)F)c(-c4ccccc4CC)n3)n2)C1 (centres unmarked) [Example 352, 1-(6-{[6-(2-ethylphenyl)-5-(trifluoromethyl)pyridin-2-yl]sulfamoyl}pyridin-2-yl)-3-propylpiperidine-3-carboxylic Acid]	82.2%	0.808 nM	714%	699 nM			
Cc1ccccc1-c1nc(NS(=O)(=O)c2cccc(N[C@H]3C[C@@](C)(C(=O)O)C3)n2)ccc1C(F)(F)F [Example 356, (1s,3s)-1-methyl-3-((6-(N-(6-(o-tolyl)-5-(trifluoromethyl)pyridin-2-yl)sulfamoyl)pyridin-2-yl)amino)cyclobutanecarboxylic Acid]	70.1%	7.49 nM		1510 nM			553.8%
Cc1ccc(F)cc1-c1nc(NS(=O)(=O)c2cccc(N3CCC[C@@H](C(=O)O)C3)n2)ccc1C(F)(F)F [Example 357, (3R)-1-(6-{[6-(5-fluoro-2-methylphenyl)-5-(trifluoromethyl)pyridin-2-yl]sulfamoyl}pyridin-2-yl)piperidine-3-carboxylic Acid]	70.6%	38.5 nM		2060 nM			
Cc1c(F)cccc1-c1nc(NS(=O)(=O)c2cccc(N3CCC[C@@H](C(=O)O)C3)n2)ccc1C(F)(F)F [Example 358, (3R)-1-(6-{[6-(3-fluoro-2-methylphenyl)-5-(trifluoromethyl)pyridin-2-yl]sulfamoyl}pyridin-2-yl)piperidine-3-carboxylic Acid]	57.9%	4.02 nM	869%	2320 nM			
